Drawing on PubChem BioAssay (NCI), this text covers TGI and GI50 for six molecules.

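Grown in 96-well plates, cells were treated for 48 hours with each compound at five concentrations. Insufficient inhibition: endpoint recorded as highest concentration tested. GI50 is the concentration that inhibits growth by half. Definition used: TGI = concentration required for complete inhibition of growth.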

Among the test systems are SNB-75 CNS; CAKI-1 renal; SN12C renal; TK-10 renal; EKVX NSCLC; SW-620 colon; BT-549 breast; UO-31 renal; SF-539 CNS; MALME-3M melanoma.
Assay in all cases: inhibition of tumour cell growth, NCI panel, 48 h

For `COc1ccc(C(=O)N(C(=O)N2CCN(c3ccccc3)CC2)S(=O)(=O)c2ccccc2)cc1`, the TGI is 63.8 µM with SNB-75 CNS; 54.2 µM in the experiment with CAKI-1 renal; 55.9 µM with SN12C renal; above 100 µM with TK-10 renal; 50.4 µM with EKVX NSCLC; above 100 µM with SW-620 colon. The TGI is above 100 µM in the experiment with BT-549 breast, 26.7 µM in the experiment on UO-31 renal, 35.9 µM with SF-539 CNS and 93.4 µM in the experiment on MALME-3M melanoma.
Take `CCCN1C(=O)CSC1=Nc1ccc2cc3ccc(N=C4SCC(=O)N4CCC)cc3nc2c1`: the GI50 with SNB-75 CNS was 22.3 µM; in the experiment on CAKI-1 renal it was above 100 µM; in the experiment on SN12C renal, above 100 µM; with TK-10 renal, 32.1 µM; in the experiment on EKVX NSCLC it was above 100 µM; in the experiment on SW-620 colon, above 100 µM. Moreover, the GI50 in the experiment with BT-549 breast was 46.5 µM; in the experiment with UO-31 renal, 41.1 µM; with SF-539 CNS, 59.2 µM; with MALME-3M melanoma it was 17.5 µM. Moreover, the TGI in the experiment with SNB-75 CNS was above 100 µM; with CAKI-1 renal, above 100 µM; with SN12C renal, above 100 µM; in the experiment with TK-10 renal, 90.6 µM; with EKVX NSCLC, above 100 µM; in the experiment with SW-620 colon, above 100 µM. Further, the TGI in the experiment with BT-549 breast was above 100 µM; in the experiment with UO-31 renal, above 100 µM; in the experiment on SF-539 CNS, above 100 µM; in the experiment with MALME-3M melanoma, 81.7 µM.
Turning to `CC(=O)c1ccc2c(c1)N(CCCN1CCN(CCO)CC1)c1ccccc1C2`, the TGI in the experiment on SNB-75 CNS turned out to be 30.5 µM; in the experiment with CAKI-1 renal it was 26.9 µM; in the experiment with SN12C renal it was 31.2 µM; in the experiment on TK-10 renal, 29.1 µM; in the experiment with EKVX NSCLC it was 33.6 µM; with SW-620 colon, 31.3 µM. Besides, the TGI is 28.1 µM in the experiment with BT-549 breast, 38.9 µM with UO-31 renal, 33.1 µM with SF-539 CNS and 33 µM in the experiment on MALME-3M melanoma.
Consider `NC(=S)N1N=C(c2ccccc2O)CC1c1ccccc1` (stereo not given), for which the TGI in the experiment on SNB-75 CNS was 52.9 µM; in the experiment on CAKI-1 renal, above 100 µM; with SN12C renal it was 45.3 µM; in the experiment on TK-10 renal it was 78.3 µM; in the experiment with EKVX NSCLC, 70.6 µM; in the experiment with SW-620 colon, above 100 µM. Moreover, the TGI in the experiment with BT-549 breast stood at 75 µM; with UO-31 renal it was 53.6 µM; with SF-539 CNS it was 36.1 µM; in the experiment on MALME-3M melanoma it was 42.3 µM.
With `O=C1/C(=C\c2ccc(F)cc2)CCOc2c1ccc1ccccc21`, the TGI with SNB-75 CNS is above 66.1 µM; in the experiment on CAKI-1 renal it was above 81.6 µM; with SN12C renal, above 89.2 µM; in the experiment on TK-10 renal, 60.7 µM; in the experiment with EKVX NSCLC, above 100 µM; in the experiment with SW-620 colon it was above 100 µM. For the same molecule, the TGI in the experiment with BT-549 breast is 77.3 µM; with UO-31 renal it was above 100 µM; with SF-539 CNS it was 48.5 µM; with MALME-3M melanoma, 37.7 µM.
On to `COc1cc2c(cc1C)NC(=O)/C2=C/c1c(Cl)n(-c2ccccc2)c2ccccc12`, for which the TGI is above 100 µM in the experiment with SNB-75 CNS; above 100 µM in the experiment on CAKI-1 renal; 23.6 µM in the experiment with SN12C renal; above 100 µM in the experiment on TK-10 renal; above 100 µM in the experiment on EKVX NSCLC; 38.7 µM with SW-620 colon. Besides, the TGI was 66.5 µM with BT-549 breast, above 100 µM with UO-31 renal, 24.3 µM in the experiment with SF-539 CNS and 37.2 µM in the experiment with MALME-3M melanoma.
